The values that follow come from patent publication US11077100B2, “Tetrahydroquinoline derivatives as P2X7 receptor antagonists” (RaQualia Pharma Inc., priority 2017, dated 2021).

Test [1] deals with human P2X7 (Homo sapiens (Human), UniProt Q99572). Nature of the test: Human P2X7 functional assay (Ca2+ influx, Fluo-4, FDSS). The test is classed as cell-based. The settings on record: antagonistic activity with respect to the human P2X7 receptor; BzATP final concentration 80 microM. The method in brief: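 HEK293 cells stably expressing C-terminally FLAG-tagged human P2X7, loaded with Fluo-4. Compounds were preincubated for 10 min at room temperature, then 80 μM BzATP (final) was added and Ca2+ fluorescence read at 540 nm (480 nm excitation) by FDSS. IC50 values come from 7-point curves, duplicate wells.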
Sequence of human P2X7 (Q99572 whole entry): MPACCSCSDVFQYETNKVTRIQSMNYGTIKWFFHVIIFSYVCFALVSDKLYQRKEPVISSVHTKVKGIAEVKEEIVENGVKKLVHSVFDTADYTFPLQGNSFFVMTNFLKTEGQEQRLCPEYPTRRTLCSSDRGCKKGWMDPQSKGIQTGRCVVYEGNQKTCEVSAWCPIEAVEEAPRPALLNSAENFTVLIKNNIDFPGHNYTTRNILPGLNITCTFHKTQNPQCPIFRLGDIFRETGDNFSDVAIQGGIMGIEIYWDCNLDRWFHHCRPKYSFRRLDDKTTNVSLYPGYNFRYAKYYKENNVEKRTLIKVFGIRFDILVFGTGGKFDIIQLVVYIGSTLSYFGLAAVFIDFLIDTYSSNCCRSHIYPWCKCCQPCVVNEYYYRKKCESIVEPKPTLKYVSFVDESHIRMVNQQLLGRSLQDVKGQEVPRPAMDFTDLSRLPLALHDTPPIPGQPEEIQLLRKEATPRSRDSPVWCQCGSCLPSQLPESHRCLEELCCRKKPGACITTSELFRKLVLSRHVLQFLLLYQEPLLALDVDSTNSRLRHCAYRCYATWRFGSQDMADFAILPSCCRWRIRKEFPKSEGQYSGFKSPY

The target in test [2] is rat P2X7 (Rattus norvegicus (Rat), UniProt Q64663). Nature of the test: Rat P2X7 functional assay (Ca2+ influx, Fluo-4, FDSS). The test is classed as cell-based. The settings on record: HEK293 cells stably expressing rat P2X7; BzATP final 10 microM; 7-point dose-response; read-out: Antagonistic activities with respect to the rat P2X7 receptor (IC50). Summed up: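 HEK293 cells stably expressing rat P2X7 (5,000/well, plated 24 h before) loaded with Fluo-4; compounds preincubated 10 min at room temperature, then Ca2+ rise after 10 microM BzATP (final) read on FDSS (480/540 nm). IC50 from 7-point curves, duplicate wells.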
Sequence of rat P2X7 (Q64663 whole entry): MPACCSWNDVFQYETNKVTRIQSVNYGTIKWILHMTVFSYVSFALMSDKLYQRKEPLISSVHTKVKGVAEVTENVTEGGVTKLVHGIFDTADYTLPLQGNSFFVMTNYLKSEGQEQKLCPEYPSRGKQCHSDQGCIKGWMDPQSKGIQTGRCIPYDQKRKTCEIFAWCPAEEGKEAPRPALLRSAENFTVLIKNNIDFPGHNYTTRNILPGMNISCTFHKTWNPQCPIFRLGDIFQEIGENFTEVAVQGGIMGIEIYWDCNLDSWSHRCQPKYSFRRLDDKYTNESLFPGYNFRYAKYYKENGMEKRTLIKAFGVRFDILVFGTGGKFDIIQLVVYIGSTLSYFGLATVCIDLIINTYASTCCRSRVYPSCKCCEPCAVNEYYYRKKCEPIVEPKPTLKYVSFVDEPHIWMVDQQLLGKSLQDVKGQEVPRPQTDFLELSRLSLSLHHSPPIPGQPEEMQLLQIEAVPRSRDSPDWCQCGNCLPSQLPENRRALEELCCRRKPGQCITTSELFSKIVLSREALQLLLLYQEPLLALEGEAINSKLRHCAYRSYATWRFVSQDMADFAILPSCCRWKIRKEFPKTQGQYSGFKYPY

Molecules are shown by their SMILES.

For the compound `Cc1cc(Cl)cc(Cl)c1CNC(=O)C1(F)CCC(O)(CO)c2ncccc21` (stereo not shown) [Example 34, N-(2,4-dichloro-6-methylbenzyl)-5-fluoro-8-hydroxy-8-(hydroxymethyl)-5,6,7,8-tetrahydroquinoline-5-carboxamide], the figures for the IC50 in test [1] and in test [2] were less than 50 nM and less than 1000 nM, respectively.

In the case of `O=C(NCc1cccc(Cl)c1Cl)[C@@]1(F)CC[C@@H](O)c2ncccc21` [Example 158, (5R,8R)-N-(2,3-dichlorobenzyl)-5-fluoro-8-hydroxy-5,6,7,8-tetrahydroquinoline-5-carboxamide], the values for the IC50 in test [1] and in test [2] were less than 50 nM and less than 1000 nM, respectively.
